Like-named read-outs stand apart in the source and are kept apart here.
System: 8XTBD luciferase reporter (YAP reporter) in HEK293T cells
Test: YAP Reporter Assay
Assay type: cell-based
Conditions: Homo sapiens, HEK-293T
Procedure, shortened: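 HEK293T cells stably carrying 8XTBD firefly luciferase and TK-renilla (3×10^3 cells/well) dosed 3-4 h after plating with compounds from 3 μM final, 1:3 dilution, 10 points, quadruplicates. After 24 h at 37° C, Dual-Glo readings gave IC50 and maximum inhibition reported separately for firefly and renilla.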

[1] = HEK293T cells stably transfected with 8XTBD luciferase reporter and pRLTK, 24-hr incubation, top concentration 3 μM, read-out: Firefly Luciferase IC50

Structure (SMILES)	IC50 [1] [µM]	IC50 (24 h, read-out: Firefly Luciferase IC50 (μM)) [µM]
C[C@@H](NC(=O)c1cnc2c(-c3ccc(C(F)(F)F)cc3)cccc2c1)c1ccccn1 [Compound 101, (R)—N-(1-(pyridin-2-yl)ethyl)-8-(4-(trifluoromethyl)phenyl)quinoline-3-carboxamide]	0.1 to 1	
O=C(NC(CCO)c1ccccn1)c1ccc2c(-c3ccc(C(F)(F)F)cc3)cccc2c1 (centres unmarked) [Compound 188, N-[3-hydroxy-1-(2-pyridyl)propyl]-5-[4-(trifluoromethyl)phenyl]naphthalene-2-carboxamide]	< 0.1	
C[C@@H](NC(=O)c1ccc2c(-c3ccc(C(F)(F)F)cc3)cccc2c1)C1CN(CCO)C1 [Compound 133, (R)—N-(1-(1-(2-hydroxyethyl)azetidin-3-yl)ethyl)-5-(4-(trifluoromethyl)phenyl)-2-naphthamide]	0.1 to 1	
CC(=O)NCCOCCOCCNC(=O)c1ccc2c(-c3ccc(C(F)(F)F)cc3)cccc2c1 [Compound 40, N-(2-(2-(2-acetamidoethoxy)ethoxy)ethyl)-5-(4-(trifluoromethyl)phenyl)-2-naphthamide]	< 0.1	
C[C@H](NC(=O)c1ccc2c(-c3ccc(C(F)(F)F)cc3)cccc2c1)C1CN(CCO)C1 [Compound 140, N-[(1S)-1-[1-(2-hydroxyethyl)azetidin-3-yl]ethyl]-5-[4-(trifluoromethyl)phenyl]naphthalene-2-carboxamide]		0.1 to 1
C[C@@H](NC(=O)c1ccc2c(-c3ccc(C(F)(F)F)cc3)cccc2c1)C1CN(CC(F)F)C1 [Compound 137, (R)—N-(1-(1-(2,2-difluoroethyl)azetidin-3-yl)ethyl)-5-(4-(trifluoromethyl)phenyl)-2-naphthamide]	0.1 to 1	
O=C(NCc1ccccc1)c1ccc2c(-c3ccc(C(F)(F)F)cc3)cccc2c1 [Compound 241, N-benzyl-5-(4-(trifluoromethyl)phenyl)-2-naphthamide]	< 0.1	
CC(C)NC(=O)c1ccc2c(-c3ccc(C(F)(F)F)cc3)ccc(NC(=O)OC(C)(C)C)c2c1 [Compound 12, Tert-Butyl (7-(isopropylcarbamoyl)-4-(4-(trifluoromethyl)phenyl)naphthalen-1-yl)carbamate]	0.1 to 1	
O=C(NCCCCO)c1ccc2c(-c3ccc(C(F)(F)F)cc3)cccc2c1 [Compound 255, N-(4-hydroxybutyl)-5-(4-(trifluoromethyl)phenyl)-2-naphthamide]	0.1 to 1	
C[C@H](NC(=O)c1cnc2c(-c3ccc(C(F)(F)F)cc3)cccc2c1)c1ccccn1 [Compound 103, (S)—N-(1-(pyridin-2-yl)ethyl)-8-(4-(trifluoromethyl)phenyl)quinoline-3-carboxamide]	< 0.1	
CCNS(=O)(=O)c1ccc2c(-c3ccc(C(F)(F)F)cc3)cccc2c1 [Compound 5, N-ethyl-5-(4-(trifluoromethyl)phenyl)naphthalene-2-sulfonamide]	< 0.1	
COCCNC(=O)c1ccc2c(-c3ccc(C(F)(F)F)cc3)cccc2c1 [Compound 58, N-(2-methoxyethyl)-5-(4-(trifluoromethyl)phenyl)-2-naphthamide]	< 0.1	
O=C(NCc1ncns1)c1ccc2c(-c3ccc(C(F)(F)F)cc3)cccc2c1 [Compound 220, N-((1,2,4-thiadiazol-5-yl)methyl)-5-(4-(trifluoromethyl)phenyl)-2-naphthamide]	< 0.1	
CCNCC[C@@H](C)NC(=O)c1cnc2c(-c3ccc(C(F)(F)F)cc3)cccc2c1 [Compound 316, N-[(1R)-3-(ethylamino)-1-methyl-propyl]-8-[4-(trifluoromethyl)phenyl]quinoline-3-carboxamide]	0.1 to 1	
COCCOc1cccc(CNC(=O)c2ccc3c(-c4ccc(C(F)(F)F)cc4)cccc3c2)c1 [Compound 208, N-(3-(2-methoxyethoxy)benzyl)-5-(4-(trifluoromethyl)phenyl)-2-naphthamide]	< 0.1	
O=C(NCc1ccccn1)c1ccc2c(-c3ccc(C(F)(F)F)cc3)cccc2c1 [Compound 239, N-(pyridin-2-ylmethyl)-5-(4-(trifluoromethyl)phenyl)-2-naphthamide]	< 0.1	
CC(C)(C)OC(=O)NCCOCCOCCNC(=O)c1ccc2c(-c3ccc(C(F)(F)F)cc3)cccc2c1 [Compound 49, Tert-Butyl (2-(2-(2-(5-(4-(trifluoromethyl)phenyl)-2-naphthamido)ethoxy)ethoxy)ethyl)carbamate]	0.1 to 1	
C[C@H](CO)NC(=O)c1ccc2c(-c3ccc(C(F)(F)F)cc3)cccc2c1 [Compound 85, (R)—N-(1-hydroxypropan-2-yl)-5-(4-(trifluoromethyl)phenyl)-2-naphthamide]	< 0.1	
O=C(NCCCCCO)c1ccc2c(-c3ccc(C(F)(F)F)cc3)cccc2c1 [Compound 238, N-(5-hydroxypentyl)-5-[4-(trifluoromethyl)phenyl]naphthalene-2-carboxamide]	0.1 to 1	

Structure (SMILES)	IC50 [1] [µM]	IC50 (24 h, read-out: Firefly Luciferase IC50 (μM)) [µM]
C[C@H](NC(=O)c1cnc2c(-c3ccc(C(F)(F)F)cc3)cccc2n1)c1ccccn1 [Compound 266, (S)—N-(1-(pyridin-2-yl)ethyl)-5-(4-(trifluoromethyl)phenyl)quinoxaline-2-carboxamide]	0.1 to 1	
NC(=O)c1nc(CNC(=O)c2ccc3c(-c4ccc(C(F)(F)F)cc4)cccc3c2)ns1 [Compound 184, 3-((5-(4-(Trifluoromethyl)phenyl)-2-naphthamido)methyl)-1,2,4-thiadiazole-5-carboxamide]	< 0.1	
COc1cc(-c2ccc(C(F)(F)F)cc2)c2ccc(C(=O)N[C@@H](C)c3ccccn3)cc2c1 [Compound 292, (S)-7-Methoxy-N-(1-(pyridin-2-yl)ethyl)-5-(4-(trifluoromethyl)phenyl)-2-naphthamide]	< 0.1	
CC(=O)N(C)c1cc(-c2ccc(C(F)(F)F)cc2)c2ccc(C(=O)NC(C)C)cc2c1 [Compound 51, N-isopropyl-7-(N-methylacetamido)-5-(4-(trifluoromethyl)phenyl)-2-naphthamide]	0.1 to 1	
C[C@H](CCO)NC(=O)c1ccc2c(-c3ccc(C(F)(F)F)cc3)cccc2c1 [Compound 167, N-[(1R)-3-hydroxy-1-methyl-propyl]-5-[4-(trifluoromethyl)phenyl]naphthalene-2-carboxamide]	< 0.1	
CS(=O)(=O)NC(=O)c1cnc2c(-c3ccc(C(F)(F)F)cc3)cc(OC(F)(F)F)cc2c1 [Compound 123, N-(methylsulfonyl)-6-(trifluoromethoxy)-8-(4-(trifluoromethyl)phenyl)quinoline-3-carboxamide]	1 to 3	
C[C@@H](NC(=O)c1ccc2c(-c3ccc(C(F)(F)F)cc3)cccc2c1)c1cccc(N(C)C)n1 [Compound 286, (R)—N-(1-(6-(dimethylamino)pyridin-2-yl)ethyl)-5-(4-(trifluoromethyl)phenyl)-2-naphthamide]	< 0.1	
CC(C)NC(=O)c1ccc2c(-c3ccc(C(F)(F)F)cc3)ccc(N(C)S(C)(=O)=O)c2c1 [Compound 34, N-isopropyl-8-(N-methylmethylsulfonamido)-5-(4-(trifluoromethyl)phenyl)-2-naphthamide]	1 to 3	
C[C@H](NC(=O)c1ccc2c(-c3ccc(C(F)(F)F)cc3)cccc2c1)c1nnn(C)n1 [Compound 278, (S)—N-(1-(2-methyl-2H-tetrazol-5-yl)ethyl)-5-(4-(trifluoromethyl)phenyl)-2-naphthamide]	0.1 to 1	
C[C@H](NC(=O)c1ccc2c(-c3ccc(C(F)(F)F)cc3)cccc2c1)c1cccc(N)n1 [Compound 128, (S)—N-(1-(6-aminopyridin-2-yl)ethyl)-5-(4-(trifluoromethyl)phenyl)-2-naphthamide]	0.1 to 1	
CC(C)NC(=O)c1ccc2c(-c3ccc(C(F)(F)F)cc3)cc(C3CC3)cc2c1 [Compound 43, 7-cyclopropyl-N-isopropyl-5-[4-(trifluoromethyl)phenyl]naphthalene-2-carboxamide]	< 0.1	
COc1ccc(-c2ccc(C(F)(F)F)cc2)c2ccc(C(=O)NC(C)C)cc12 [Compound 37, N-isopropyl-8-methoxy-5-[4-(trifluoromethyl)phenyl]naphthalene-2-carboxamide]	< 0.1	
COC[C@H](C)NC(=O)c1cnc2c(-c3ccc(C(F)(F)F)cc3)cc(OC)cc2c1 [Compound 109, 6-methoxy-N-[(1S)-2-methoxy-1-methyl-ethyl]-8-[4-(trifluoromethyl)phenyl]quinoline-3-carboxamide]	< 0.1	
C[C@@H](NC(=O)c1cnc2c(-c3ccc(C(F)(F)F)cc3)cccc2c1)C1CN(C)C1 [Compound 156, N-[(1R)-1-(1-methylazetidin-3-yl)ethyl]-8-[4-(trifluoromethyl)phenyl]quinoline-3-carboxamide]	0.1 to 1	
CC(C)NC(=O)c1ccc2c(-c3ccc(C(F)(F)F)cc3)cncc2c1 [Compound 25, N-isopropyl-4-[4-(trifluoromethyl)phenyl]isoquinoline-7-carboxamide]	0.1 to 1	
Nc1cccc(CNC(=O)c2ccc3c(-c4ccc(C(F)(F)F)cc4)cccc3c2)c1 [Compound 235, N-(3-aminobenzyl)-5-(4-(trifluoromethyl)phenyl)-2-naphthamide]	< 0.1	
C[C@H](CN1CCOCC1)NC(=O)c1ccc2c(-c3ccc(C(F)(F)F)cc3)cccc2c1 [Compound 70, (R)—N-(1-morpholinopropan-2-yl)-5-(4-(trifluoromethyl)phenyl)-2-naphthamide]	1 to 3	
O=C(NC(CCO)CCO)c1cnc2c(-c3ccc(C(F)(F)F)cc3)cccc2c1 [Compound 160, N-(1,5-dihydroxypentan-3-yl)-8-(4-(trifluoromethyl)phenyl)quinoline-3-carboxamide]	1 to 3	
N#Cc1cc(CNC(=O)c2ccc3c(-c4ccc(C(F)(F)F)cc4)cccc3c2)ccn1 [Compound 186, N-((2-cyanopyridin-4-yl)methyl)-5-(4-(trifluoromethyl)phenyl)-2-naphthamide]	< 0.1	
